Source: US9474757B2, “Methods for treating cancer using TOR kinase inhibitor combination therapy” (Signal Pharmaceuticals, LLC, priority 2013, dated 2016)
Entries after “also recorded” stand apart in the source; their conditions may differ.

Key:
HepG2 cells = test: Anchorage independent growth colony formation assay, HepG2; type: cell-based, Human; conditions: for colony formation, % of control: HepG2, single agent, 8 days
Protocol: (§1) Cell Lines/Cells. Human cell lines HepG2 and SK-Hep-1 cells were obtained from American Type Culture Collection (ATCC; Manassas, Va.). Cells were cultured in DMEM (Dulbecco's Modified Eagle's Medium) (Mediatech; Mannasas, Va.) with 10% Premium FBS (Lonza, Walkersville, Md.).
(1) Single Agent Colony Formation Assay. Nobel Agar (1.2 grams; BD; Franklin Lakes, N.J.) was placed in a 100-mL sterile bottle. Sterile water (100 mL) was added and microwaved until the agar boiled. Equal volumes of agar and 2×RPMI medium (ECE Scientific; Doylestown, Pa.) were mixed and 300 μL were transferred to each well in a 24-well flat bottom plate (BD; Franklin Lakes, N.J.). Plates were kept at 4° C. until the agar solidified. Cultures of HepG2 and SK-Hep-1 cells were harvested and resuspended in culture medium at 3.6×10^3 cells/mL. Equal volumes of agar, 2×RPMI, and cell suspension (1:1:1) were mixed in a sterile tube and 500 μL/well were immediately transferred into the 24-well plates. Plates were kept at 4° C. until the agar solidified. Culture medium (500 μL) containing compound or DMSO was added to each well (final DMSO concentration for each treatment was 0.2%). Compound 1 was tested at final concentrations of 0.1, 0.3, 1, 3, 10 and 30 μM. Cell treatments were set up in triplicate. Cells were incubated for 8-10 days at 37° C. in a 5% CO2 atmosphere. Photographs (2× magnification) of each well were taken using a Nikon DXM1200 Digital Camera and Nikon ACT1 software and saved as a TIFF file. ImageQuant TL (GE Healthcare; Piscataway, N.J.) Colony Count Software was used to count colonies. (2) Combination Study Colony Formation Assay. Nobel Agar (1.2 grams; BD; Franklin Lakes, N.J.) was placed in a 100-mL sterile bottle. Sterile water (100 mL) was added and microwaved until the agar boiled. Equal volumes of agar and 2×RPMI medium (ECE Scientific; Doylestown, Pa.) were mixed and 300 μL were transferred to each well in a 24-well flat bottom plate (BD; Franklin Lakes, N.J.). Plates were kept at 4° C. until the agar solidified. Cultures of HepG2 and SK-Hep-1 cells were harvested and resuspended in culture medium at 3.6×10^3 cells/mL. Equal volumes of agar, 2×RPMI, and cell suspension (1:1:1) were mixed in a sterile tube and 500 µL/well were immediately transferred into the 24-well plates. Plates were kept at 4° C. until the agar solidified. Culture medium (500 μL) containing compound or DMSO was added to each well (final DMSO concentration for each treatment was 0.2%). Cells were treated with single treatment as follows: Compound 1 was tested at final concentrations of 0.1 and 0.3 μM. Cell treatments were set up in triplicate. Cells were incubated for 8-10 days at 37° C. in a 5% CO2 atmosphere. Photographs (2× magnification) of each well were taken using a Nikon DXM1200 Digital Camera and Nikon ACT1 software and saved as a TIFF file. ImageQuant TL (GE Healthcare; Piscataway, N.J.) Colony Count Software was used to count colonies.
(§2) Significance versus the DMSO control was calculated using One Way ANOVA and Dunnett's Post test or unpaired t tests using GraphPad Prism v5.01.

SK-Hep-1 cells = test: Anchorage independent growth colony formation assay, SK-Hep-1; type: cell-based, Human
Protocol: as §1
(1) Single Agent Colony Formation Assay. Nobel Agar (1.2 grams; BD; Franklin Lakes, N.J.) was placed in a 100-mL sterile bottle. Sterile water (100 mL) was added and microwaved until the agar boiled. Equal volumes of agar and 2×RPMI medium (ECE Scientific; Doylestown, Pa.) were mixed and 300 μL were transferred to each well in a 24-well flat bottom plate (BD; Franklin Lakes, N.J.). Plates were kept at 4° C. until the agar solidified. Cultures of HepG2 and SK-Hep-1 cells were harvested and resuspended in culture medium at 3.6×10^3 cells/mL. Equal volumes of agar, 2×RPMI, and cell suspension (1:1:1) were mixed in a sterile tube and 500 μL/well were immediately transferred into the 24-well plates. Plates were kept at 4° C. until the agar solidified. Culture medium (500 μL) containing compound or DMSO was added to each well (final DMSO concentration for each treatment was 0.2%). Compound 1 was tested at final concentrations of 0.1, 0.3, 1, 3, 10 and 30 μM. Cell treatments were set up in triplicate. Cells were incubated for 8-10 days at 37° C. in a 5% CO2 atmosphere. Photographs (2× magnification) of each well were taken using a Nikon DXM1200 Digital Camera and Nikon ACT1 software and saved as a TIFF file. ImageQuant TL (GE Healthcare; Piscataway, N.J.) Colony Count Software was used to count colonies. (2) Combination Study Colony Formation Assay. Nobel Agar (1.2 grams; BD; Franklin Lakes, N.J.) was placed in a 100-mL sterile bottle. Sterile water (100 mL) was added and microwaved until the agar boiled. […]
as §2

WSU-DLCL2 xenograft = test: DLBCL xenograft model (WSU-DLCL2); type: in vivo, SCID mice; conditions: for tumor volume reduction (TVR) vs vehicle: initial study, oral QD, end of 3-week dosing, Day 35
Protocol: Severe combined immunodeficiency (SCID) mice were implanted with human DLBCL cell line (WSU-DLCL2) into the flank. Treatment of compounds started between Day 11 and Day 14 after cell inoculation. Randomized groups of mice (n=9 to 10/group) were treated with the single agents (Compound 1, Compound A or Compound AA) or the combination of Compound 1/Compound A, Compound A/Compound AA, or Compound 1/Compound AA. Compounds were administered orally on a once daily (Compound 1 and Compound A) or twice daily […] schedule for 21 days. The positive control consisted of CHOP therapy (combination of cyclophosphamide, doxorubicin, vincristine and prednisone). Compound 1 and Compound A were formulated in CMC-Tween (carboxymethylcellulose/Tween 80/deionized water). Compound AA was suspended in DSP (dimethylsulphoxide/solutol/phosphate buffered saline).
Initial studies were conducted in order to determine the antitumor activity of Compound 1 and to identify a dose level for the combination studies. In the WSU-DLCL2 xenograft model, Compound 1 inhibited tumor growth in a dose-dependent fashion. […] In a subsequent combination study, Compound 1 was dosed at 10 mg/kg, once daily (QD). Compound A and Compound AA were dosed at 30 mg/kg (QD) and 50 mg/kg (BID), respectively.

OCI-Ly10 xenograft = test: OCI-Ly10 DLBCL xenograft model; type: in vivo, SCID mice; conditions: extended schedule qd×28/4/21: Compound A 10 mg/kg, Compound 1 3 mg/kg
Description: OCI-Ly10 cells are derived from a diffuse-large B-cell lymphoma, a type of non-Hodgkins lymphoma. Female SCID mice (Fox Chase SCID®, CB 17/Icr-Prkdcscid, Charles River), characterized by severe combined T and B cell immunodeficiency, were 10 weeks old, with body weights ranging from 15.4 to 24.2 g, on Day 1 of this study. In brief, female CB.17 SCID mice were inoculated with 5×10^6 OCI-Ly10 cells subcutaneously, and tumors were allowed to grow to approximately 100-150 mm^3 before stratification into treatment groups, so as to yield groups with comparably sized tumors prior to treatment. In addition to the efficacy treatment groups, some mice were stratified into short-term treatment groups and their tumors were collected 4 hours post final dosing in groups that received saline, 30 mg/kg or 10 mg/kg Compound A, or 3 mg/kg Compound 1 once daily for seven days, starting on day 27. Frozen, and fixed paraffin-embedded, samples were analyzed. In the efficacy arm of the study, dosing began on Day 1 (D1) in 12 groups of mice (n=10/group) with established subcutaneous tumors (mean volumes, 120-129 mm^3). Compound A (at two dose levels) and Compound 1 (at one dose level) were each administered once daily for 28 days (qd×28). Control mice received the vehicle, 5% DMSO/15% Solutol® HS15/80% PBS, p.o. b.i.d.×28. On D29 a 21-day dosing extension, from day 33 to day 53, in the control and five test groups was implemented, resulting in b.i.d.×28/4/21 or qd×28/4/21 schedules for these groups.
Tumors were calipered twice weekly, and each mouse in the efficacy study was euthanized when its tumor reached the 1000 mm^3 volume endpoint, or on day 61, whichever came first. Efficacy was determined from tumor growth delay (TGD), defined as the increase in the median time-to-endpoint (TTE) in drug-treated (T) versus vehicle-treated (C) mice, and from the significance of survival extension.

[1] = system: doxorubicin-resistant Ramos cell xenografts; test: CIVO local injection, parental and doxorubicin-resistant RAMOS xenograft, cleaved caspase 3; type: in vivo, Nu/Nu mice; conditions: tumors harvested 24 hour post injection
Protocol: Anesthetized Nu/Nu mice harboring xenografted tumors were injected with multiple individual compounds or compound combinations, simultaneously, each into a distinct location of the tumor. Precise, controlled delivery of the compounds was evaluated for spatially defined and cellular changes around sites of tumor microinjection across xenograft models of DLBCL. Tumors were resected and injection quality was assessed by IVIS imaging of co-injected near-infrared tracking dye. Sections from representative regions down the z-axis of the tumor were prepared for staining with biomarkers of pathway inhibition and tumor response. Samples were then batch scanned in a Caliper Pannoramic slide scanner, resulting in high resolution images compatible with single cell analysis and subsequent data quantification via Presage's CIVO™ analyzer custom image analysis platform (for technology description, see R. Klinghoffer et al, AACR, 2014 and Presagebio.com).
Mice with parental or doxorubicin-resistant Ramos cell xenografts were injected locally with vehicle (4 μL), Compound 2 (13 μg in 4 μL injected), Compound 1 (39 μg in 4 μL injected), or Vincristine (1.47 μg in 4 μL (400 μM) injected). Tumors were harvested 24 hour post injection.

[2] = combination study, single agents or in combination

CO[C@H]1CC[C@H](N2C(=O)CNc3ncc(-c4ccc(C(C)(C)O)nc4)nc32)CC1 [Compound 1, 7-(6-(2-hydroxypropan-2-yl)pyridin-3-yl)-1-((1r,4r)-4-methoxycyclohexyl)-3,4-dihydropyrazino-[2,3-b]pyrazin-2(1H)-one]
anti-colony forming activity (HepG2 cells; HepG2, concentrations of 0.1 to 100 μM): dose-dependent and significant anti-colony forming activity | colony formation, % of control (HepG2 cells; 0.1 μM): 74 % of control | colony formation, % of control (HepG2 cells; 0.3 μM): 57 % of control | colony formation, % of control (HepG2 cells; 1 μM): 33 % of control | colony formation, % of control (HepG2 cells; 3 μM): 24 % of control | colony formation, % of control (HepG2 cells; 10 μM): 16 % of control | colony formation, % of control (HepG2 cells; 30 μM): 11 % of control | anti-colony forming activity (SK-Hep-1 cells; SK-Hep-1, concentrations of 0.1 to 100 μM): dose-dependent and significant anti-colony forming activity | inhibition of colony formation (SK-Hep-1 cells; SK-Hep-1, single agent, 3 μM and higher): 100% | colony formation, % of control (SK-Hep-1 cells; SK-Hep-1, single agent, 0.3-30 μM, 8-10 days): 0-45 % of control | decrease in tumor volume (TVR) vs vehicle (WSU-DLCL2 xenograft; combination study, Day 34, Compound 1 10 mg/kg QD, Compound A 30 mg/kg QD, Compound AA 50 mg/kg BID, oral): 29% | body weight loss (WSU-DLCL2 xenograft; [2]): No significant body weight loss | tumor volume reduction (TVR) vs vehicle (WSU-DLCL2 xenograft; 1 mg/kg): ~22% | tumor volume reduction (TVR) vs vehicle (WSU-DLCL2 xenograft; 3 mg/kg): ~28% | body weight loss (WSU-DLCL2 xenograft; initial study, 1, 3 and 10 mg/kg): No significant body weight loss | tumor growth delay (TGD), % (OCI-Ly10 xenograft): 73% | PRs / regressions (OCI-Ly10 xenograft; alone or combined): one | survivors (n=10/group) (OCI-Ly10 xenograft; alone or combined): five | tumor growth delay (TGD) (OCI-Ly10 xenograft; alone or combined): 23.8 days

CCN1C(=O)CNc2ncc(-c3ccc(-c4nc[nH]n4)nc3C)nc21 [Compound 2, 1-ethyl-7-(2-methyl-6-(1H-1,2,4-triazol-3-yl)pyridin-3-yl)-3,4-dihydropyrazino[2,3-b]pyrazin-2(1H)-one]
sensitivity of doxorubicin resistant vs parental Ramos cells (cleaved caspase 3 vs distance from injection site) [1]: increased sensitivity; also recorded: more sensitive

C=CC(=O)Nc1cccc(Nc2nc(Nc3ccc(OCCOC)cc3)ncc2F)c1 [Compound AA, N-(3-(5-fluoro-2-(4-(2-methoxyethoxy)phenylamino)pyrimidin-4-ylamino)phenyl)acrylamide]
antitumor activity (WSU-DLCL2 xenograft; combination study, Day 34, Compound 1 10 mg/kg QD, Compound A 30 mg/kg QD, Compound AA 50 mg/kg BID, combinations compared with single agent): No significant antitumor activity; also recorded: inactive | body weight loss (WSU-DLCL2 xenograft; [2]): No significant body weight loss

CC[C@]1(O)C[C@H]2CN(CCc3c([nH]c4ccccc34)[C@@](C(=O)OC)(c3cc4c(cc3OC)N(C=O)[C@H]3[C@@](O)(C(=O)OC)[C@H](OC(C)=O)[C@]5(CC)C=CCN6CC[C@]43[C@@H]65)C2)C1 [Vincristine, reference compound]
sensitivity of doxorubicin resistant vs parental Ramos cells (cleaved caspase 3 vs distance from injection site) [1]: resistant
